Target: hKCNQ2/3 (Homo sapiens, UniProt O43525+O43526)
Test: Fluorescence assay using a voltage-sensitive dye (fluorimetry)
Type: cell-based
Parameters: expressed in transfected cells; host or cells: CHO-K1
Details: CHO-K1 cells expressing KCNQ2/3; for Emax at 1 µM: read-out: Fluorimetry % Efficacy @ 1 μM (Retigabine = 100%)
Protocol: Pharmacological Experiments Fluorescence Assay Using a Voltage-Sensitive Dye
Human CHO-K1 cells expressing KCNQ2/3 channels are cultivated adherently at 37° C., 5% CO2 and 95% humidity in cell culture bottles (e.g. 80 cm^2 TC flasks, Nunc) with DMEM-high glucose (Sigma Aldrich, D7777) including 10% FCS (PAN Biotech, e.g. 3302-P270521) or alternatively MEM Alpha Medium (1×, liquid, Invitrogen, #22571), 10% foetal calf serum (FCS) (Invitrogen, #10270-106, heat-inactivated) and the necessary selection antibiotics.
Before being sown out for the measurements, the cells are washed with a 1×DPBS buffer without Ca^2+/Mg^2+ (e.g. Invitrogen, #14190-094) and detached from the bottom of the culture vessel by means of Accutase (PAA Laboratories, #L11-007) (incubation with Accutase for 15 min at 37° C.). The cell count then present is determined using a CASY™ cell counter (TCC model, Scharfe System) in order subsequently to apply 20,000 to 30,000 cells/well/100 μl of the described nutrient medium, depending on density optimisation for the individual cell line, to 96-well measuring plates of the Corning™ CeIIBIND™ type (flat clear-bottom black polystyrene microplates, #3340).
Incubation is then carried out for one hour at room temperature, without gassing or adjusting the humidity, followed by incubation for 24 hours at 37° C., 5% CO2 and 95% humidity.
The voltage-sensitive fluorescent dye from the Membrane Potential Assay Kit (Red™ bulk format part R8123 for FLIPR, MDS Analytical Technologies™) is prepared by dissolving the contents of a vessel of Membrane Potential Assay Kit Red Component A in 200 ml of extracellular buffer (ES buffer, 120 mM NaCl, 1 mM KCl, 10 mM HEPES, 2 mM CaCl2, 2 mM MgCl2, 10 mM glucose; pH 7.4). After removal of the nutrient medium, the cells are washed with 200 μl of ES buffer, then covered with a layer of 100 μl of the dye solution prepared above and incubated for 45 min at room temperature with exclusion of light.
The fluorescence measurements are carried out with a BMG Labtech FLUOstar™ BMG Labtech NOVOstar™ or BMG Labtech POLARstar™ instrument (525 nm excitation, 560 nm emission, bottom-read mode). After incubation of the dye, 50 μl of the substances to be tested in the desired concentrations, or 50 μl of ES buffer for control purposes, are introduced into separate cavities of the measuring plate and incubated for 30 min at room temperature whilst being shielded from light. The fluorescence intensity of the dye is then measured for 5 min and the fluorescence value F1 of each well is thus determined at a given, constant time. 15 μl of a […] KCl solution ([…]) are then added to each well. The change in fluorescence is subsequently measured until all relevant measured values have been obtained (mainly 5-30 min). At a given time after KCl application, a fluorescence value F2 is determined, in this case at the time of the fluorescence peak.
For calculation, the fluorescence intensity F2 is compared with the fluorescence intensity F1, and the agonistic activity of the target compound on the potassium channel is determined therefrom. F2 and F1 are calculated as follows: […]
In order to determine whether a substance has an agonistic activity,
[formula] for example, can be compared with
[formula] of control cells.
[formula] is determined by adding to the reaction batch only the buffer solution instead of the substance to be tested, determining the value F1K of the fluorescence intensity, adding the potassium ions as described above and measuring a value F2K of the fluorescence intensity. Then F2K and F1K are calculated as follows: […]
A substance has an agonistic activity on the potassium channel if
[formula] is greater than
Independently of the comparison of
[formula] it is also possible to conclude that a target compound has an agonistic activity if an increase in
[formula] is to be observed as the dosage of the target compound increases. […]

Sequence of hKCNQ2/3 (O43526 whole entry): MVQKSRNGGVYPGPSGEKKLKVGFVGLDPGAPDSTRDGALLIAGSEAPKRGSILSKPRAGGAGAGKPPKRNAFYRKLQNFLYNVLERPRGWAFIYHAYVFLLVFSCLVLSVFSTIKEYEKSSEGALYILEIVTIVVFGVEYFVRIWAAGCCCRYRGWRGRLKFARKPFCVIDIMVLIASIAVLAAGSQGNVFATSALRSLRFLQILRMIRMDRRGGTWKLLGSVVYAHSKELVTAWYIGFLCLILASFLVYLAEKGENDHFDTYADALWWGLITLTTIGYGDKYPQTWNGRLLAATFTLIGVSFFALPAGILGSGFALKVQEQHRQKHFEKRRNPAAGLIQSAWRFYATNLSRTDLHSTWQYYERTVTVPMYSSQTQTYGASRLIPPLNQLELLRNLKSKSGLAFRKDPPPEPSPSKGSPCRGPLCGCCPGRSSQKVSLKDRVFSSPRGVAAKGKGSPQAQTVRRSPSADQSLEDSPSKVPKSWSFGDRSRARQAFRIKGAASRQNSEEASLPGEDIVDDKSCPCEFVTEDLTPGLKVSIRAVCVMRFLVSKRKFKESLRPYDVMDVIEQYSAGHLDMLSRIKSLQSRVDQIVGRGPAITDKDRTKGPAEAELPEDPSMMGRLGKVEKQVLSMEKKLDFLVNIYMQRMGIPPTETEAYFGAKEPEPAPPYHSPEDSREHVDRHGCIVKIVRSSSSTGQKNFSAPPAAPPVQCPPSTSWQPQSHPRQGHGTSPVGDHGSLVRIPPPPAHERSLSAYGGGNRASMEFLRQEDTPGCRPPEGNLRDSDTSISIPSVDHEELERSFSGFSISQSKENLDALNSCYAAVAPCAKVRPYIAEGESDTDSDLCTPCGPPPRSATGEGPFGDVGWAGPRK
Sequence of hKCNQ2/3 (O43525 whole entry): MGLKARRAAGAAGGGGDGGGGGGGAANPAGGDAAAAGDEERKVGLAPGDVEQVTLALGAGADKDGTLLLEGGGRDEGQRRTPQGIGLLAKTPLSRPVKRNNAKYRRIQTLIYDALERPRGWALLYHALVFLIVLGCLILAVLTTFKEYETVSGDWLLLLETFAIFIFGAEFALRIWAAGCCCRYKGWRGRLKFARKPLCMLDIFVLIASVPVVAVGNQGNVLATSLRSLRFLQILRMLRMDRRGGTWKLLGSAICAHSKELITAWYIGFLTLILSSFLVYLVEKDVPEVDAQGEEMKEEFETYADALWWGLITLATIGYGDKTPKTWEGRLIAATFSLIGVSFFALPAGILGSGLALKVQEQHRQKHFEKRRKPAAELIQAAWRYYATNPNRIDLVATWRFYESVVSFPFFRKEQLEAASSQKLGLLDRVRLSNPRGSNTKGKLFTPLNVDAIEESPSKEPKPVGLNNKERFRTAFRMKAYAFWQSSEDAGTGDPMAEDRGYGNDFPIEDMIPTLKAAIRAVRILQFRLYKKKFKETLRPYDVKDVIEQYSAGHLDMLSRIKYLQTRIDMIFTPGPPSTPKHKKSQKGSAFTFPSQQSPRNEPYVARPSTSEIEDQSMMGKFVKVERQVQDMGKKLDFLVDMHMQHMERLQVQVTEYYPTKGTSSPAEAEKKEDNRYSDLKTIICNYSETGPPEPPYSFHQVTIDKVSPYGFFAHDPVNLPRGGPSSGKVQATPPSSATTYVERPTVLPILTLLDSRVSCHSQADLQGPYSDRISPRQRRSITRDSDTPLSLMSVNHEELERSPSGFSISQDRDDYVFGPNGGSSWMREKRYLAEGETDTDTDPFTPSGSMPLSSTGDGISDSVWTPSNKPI

| Emax at 1 µM (relative to retigabine = 100%) | EC50 | Emax at 10 µM (10 μM, relative to retigabine = 100%, read-out: Fluorimetry % Efficacy @ 10 μM (Retigabine = 100%)) | SMILES |
| --- | --- | --- | --- |
| 56% | 149 nM |  | Cc1ccccc1C1c2ccccc2CCN1C(=O)CCC(=O)NCc1ccc(C(F)(F)F)cc1 (stereo not shown) [Example compound 68, 4-Oxo-4-(1-(2-tolyl)-3,4-dihydro-1H-isoquinolin-2-yl)-N-[[4-(trifluoromethyl)-phenyl]methyl]butyric acid amide] |
| 73% | 75 nM |  | O=C(CCC(=O)N1CCc2c(F)cccc2C1c1ccccc1)NCc1cccc(C(F)(F)F)c1 (stereo not shown) [Example compound 6, 4-(5-Fluoro-1-phenyl-3,4-dihydro-1H-isoquinolin-2-yl)-4-oxo-N-[[3-(trifluoromethyl)phenyl]methyl]butyric acid amide] |
| -7% |  |  | COc1cccc2c1CCN(C(=O)CCC(=O)NCc1cccc(C(F)(F)F)c1)C2c1ccccc1 (stereo not shown) [Example compound 12, 4-(5-Methoxy-1-phenyl-3,4-dihydro-1H-isoquinolin-2-yl)-4-oxo-N-[[3-(trifluoromethyl)phenyl]methyl]butyric acid amide] |
| 51% | 116 nM |  | CC1CN(C(=O)CCC(=O)NCc2cccc(C(F)(F)F)c2)C(c2ccccc2)c2ccccc21 (stereo not shown) [Example compound 9, 4-(4-Methyl-1-phenyl-3,4-dihydro-1H-isoquinolin-2-yl)-4-oxo-N-[[3-(trifluoromethyl)phenyl]methyl]butyric acid amide] |
| 112% | 215 nM |  | Cc1ccccc1C1c2ccccc2CCN1C(=O)CCC(=O)NCc1cccc(C(F)(F)F)c1 (stereo not shown) [Example compound 67, 4-Oxo-4-(1-(2-tolyl)-3,4-dihydro-1H-isoquinolin-2-yl)-N-[[3-(trifluoromethyl)-phenyl]methyl]butyric acid amide] |
| 45% | 135 nM |  | CC1(C)CN(C(=O)CCC(=O)NCc2cccc(C(F)(F)F)c2)C(c2ccccc2)c2ccccc21 (stereo not shown) [Example compound 10, 4-(4,4-Dimethyl-1-phenyl-1,3-dihydroisoquinolin-2-yl)-4-oxo-N-[[3-(trifluoromethyl)phenyl]methyl]butyric acid amide] |
| 63% |  |  | O=C(CCC(=O)N1CCc2ccccc2C1c1ccccc1)NCc1ccc(C(F)(F)F)cc1 (stereo not shown) [Example compound 8, 4-Oxo-4-(1-phenyl-3,4-dihydro-1H-isoquinolin-2-yl)-N-[[4-(trifluoromethyl)phenyl]methyl]butyric acid amide] |
| 29% |  |  | CC1Cc2ccccc2C(c2ccccc2)N1C(=O)CCC(=O)NCc1cccc(C(F)(F)F)c1 (stereo not shown) [Example compound 13, 4-(3-Methyl-1-phenyl-3,4-dihydro-1H-isoquinolin-2-yl)-4-oxo-N-[[3-(trifluoromethyl)phenyl]methyl]butyric acid amide] |
| 69% | 83 nM |  | O=C(CCC(=O)N1CCc2ccc(F)cc2C1c1ccccc1)NCc1cccc(C(F)(F)F)c1 (stereo not shown) [Example compound 5, 4-(7-Fluoro-1-phenyl-3,4-dihydroisoquinolin-2(1H)-yl)-4-oxo-N-(3-(trifluoromethyl)benzyl)butyric acid amide] |
| 12% |  |  | O=C(CCC(=O)N1CCc2ccccc2C1c1ccccc1)NCc1ccccc1C(F)(F)F (stereo not shown) [Example compound 7, 4-Oxo-4-(1-phenyl-3,4-dihydro-1H-isoquinolin-2-yl)-N-[[2-(trifluoromethyl)phenyl]methyl]butyric acid amide] |
| 11% |  | 35% | O=C(CCC(=O)N1CCc2ccccc2C1c1ccncc1)NCc1cccc(C(F)(F)F)c1 (stereo not shown) [Example compound 4, 4-Oxo-4-[1-(4-pyridyl)-3,4-dihydro-1H-isoquinolin-2-yl]-N-[[3-(trifluoromethyl)phenyl]methyl]butyric acid amide] |
| 30% |  |  | COc1ccc2c(c1)C(c1ccccc1)N(C(=O)CCC(=O)NCc1cccc(C(F)(F)F)c1)CC2 (stereo not shown) [Example compound 11, 4-(7-Methoxy-1-phenyl-3,4-dihydro-1H-isoquinolin-2-yl)-4-oxo-N-[[3-(trifluoromethyl)phenyl]methyl]butyric acid amide] |

From patent publication US8367700B2, “Substituted 4-(1.2,3,4-tetrahydroisoquinolin-2-yl)-4-oxobutyric acid amide as KCNQ2/3 modulators” (Gruenenthal GmbH, priority 2008, dated 2013)
